Measurements taken from ChEMBL document CHEMBL5620423, “Highly-tumor-targeted PAD4 inhibitors with PBA modification inhibit tumors in vivo by specifically inhibiting the PAD4-H3cit-NETs pathway in neutrophils” (Eur J Med Chem, 2023).
Active and inactive are the calls of the source. The rule behind the calls is not given here.

How the values were obtained:
4T1 [1] = test: Cytotoxicity against mouse 4T1 cells assessed as reduction in cell viability measured after 48 hrs by MTT assay; details: 4T1, 48 h
Sarcoma-180 [2] = test: Antitumor activity against Sarcoma-180 mouse model assessed as tumor weight at 10 umol/kg (reference value: 1.65 +/-0.2 gms); format: functional; details: dose 10 µmol/kg
Sarcoma-180 [3] = test: Antitumor activity against Sarcoma-180 mouse model assessed as inhibition of tumor growth at 10 umol/kg; format: functional
[4] = target: Protein-arginine deiminase type-4 (Homo sapiens, UniProt Q9UM07); test: Inhibition of PAD4 (unknown origin) using BAEE as substrate by colorimetric analysis
Sequence of Protein-arginine deiminase type-4 (Q9UM07 whole entry): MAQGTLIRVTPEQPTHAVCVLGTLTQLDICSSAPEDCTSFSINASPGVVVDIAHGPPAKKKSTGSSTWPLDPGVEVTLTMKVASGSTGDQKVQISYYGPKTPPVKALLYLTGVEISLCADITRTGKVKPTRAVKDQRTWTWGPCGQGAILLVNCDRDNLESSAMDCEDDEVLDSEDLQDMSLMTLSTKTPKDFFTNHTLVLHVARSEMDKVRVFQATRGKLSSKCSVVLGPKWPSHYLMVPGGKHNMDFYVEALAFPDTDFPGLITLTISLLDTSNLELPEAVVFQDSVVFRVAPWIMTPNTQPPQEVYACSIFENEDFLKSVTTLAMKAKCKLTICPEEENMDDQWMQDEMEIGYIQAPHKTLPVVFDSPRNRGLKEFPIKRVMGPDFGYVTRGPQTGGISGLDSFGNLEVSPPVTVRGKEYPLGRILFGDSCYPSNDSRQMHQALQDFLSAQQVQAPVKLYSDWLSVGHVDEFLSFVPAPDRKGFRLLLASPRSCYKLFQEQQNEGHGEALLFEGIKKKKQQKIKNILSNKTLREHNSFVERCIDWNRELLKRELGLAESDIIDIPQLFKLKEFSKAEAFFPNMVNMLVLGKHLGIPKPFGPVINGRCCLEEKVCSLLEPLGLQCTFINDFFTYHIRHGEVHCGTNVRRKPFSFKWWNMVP

[5] = target: Protein-arginine deiminase type-4 (Mus musculus) (UniProt Q9Z183); test: Inhibition of PAD4 in mouse bone marrow neutrophils assessed as reduction in H3 cit expression by measuring red filamentous histone structure at 50 uM measured after 48 hrs by Hoechst33342 staining based confocal laser scanning microscopy; format: cell-based; details: Neutrophil
Sequence of Protein-arginine deiminase type-4 (Mus musculus) (Q9Z183 whole entry): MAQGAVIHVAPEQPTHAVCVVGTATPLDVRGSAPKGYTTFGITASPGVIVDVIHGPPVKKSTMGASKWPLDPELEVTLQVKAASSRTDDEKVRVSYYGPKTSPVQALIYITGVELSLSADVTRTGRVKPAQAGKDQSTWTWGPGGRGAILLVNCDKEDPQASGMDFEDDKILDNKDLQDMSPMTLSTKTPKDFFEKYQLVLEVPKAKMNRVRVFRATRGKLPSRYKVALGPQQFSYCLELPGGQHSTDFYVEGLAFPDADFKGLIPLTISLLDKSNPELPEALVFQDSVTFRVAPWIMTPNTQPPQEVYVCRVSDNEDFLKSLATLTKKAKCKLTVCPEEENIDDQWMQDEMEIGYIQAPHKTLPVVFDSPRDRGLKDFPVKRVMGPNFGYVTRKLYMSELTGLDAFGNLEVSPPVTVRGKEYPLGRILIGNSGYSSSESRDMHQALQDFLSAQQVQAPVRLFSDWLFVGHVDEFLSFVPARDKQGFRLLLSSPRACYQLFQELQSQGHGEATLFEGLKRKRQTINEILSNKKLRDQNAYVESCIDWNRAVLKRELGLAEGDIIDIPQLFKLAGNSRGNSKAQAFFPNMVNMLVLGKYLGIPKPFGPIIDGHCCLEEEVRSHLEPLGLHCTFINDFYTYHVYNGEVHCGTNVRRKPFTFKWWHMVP

4T1 [6] = test: Antitumor activity against mouse 4T1 cells xenografted in BALB/c mouse assessed as reduction in tumor volume at 10 umol/kg, iv for 21 days; format: functional, organism-based; details: dose 10.0 µmol/kg, time 21.0 day
4T1 [7] = test: Antitumor activity against mouse 4T1 cells xenografted in BALB/c mouse assessed as reduction in tumor weight at 10 umol/kg, iv for 21 days; format: functional, organism-based; details: dose 10.0 µmol/kg, time 21.0 day
[8] = Toxicity in BALB/c mouse xenografted with mouse 4T1 cells assessed as decrease in body weight at 10 umol/kg, iv measured after 9 to 15 days; format: organism-based; details: in vivo, time 9-15 day, dose 10 µmol/kg
4T1 [9] = test: Anti-metastatic activity against mouse 4T1 cells xenografted in BALB/c mouse assessed as reduction in number of lung metastatic tumor nodules at 10 umol/kg, iv for 21 days; format: functional, organism-based; details: dose 10.0 µmol/kg, time 21.0 day
[10] = Hepatotoxicity in BALB/c mouse xenografted with mouse 4T1 cells assessed as reduction in serum ALT level at 10 umol/kg, iv for 21 days; format: toxicity, organism-based; details: in vivo, 504 h, dose 10 µmol/kg, time 21 day
[11] = Nephrotoxicity in BALB/c mouse xenografted with mouse 4T1 cells assessed as […] in serum creatinine level at 10 umol/kg, iv for 21 days; format: toxicity, organism-based; details: in vivo, 504 h, dose 10 µmol/kg, time 21 day
[12] = Nephrotoxicity in BALB/c mouse xenografted with mouse 4T1 cells assessed as reduction in serum BUN level at 10 umol/kg, iv for 21 days; format: toxicity, organism-based; details: in vivo, 504 h, dose 10 µmol/kg, time 21 day

IC50 [4] | inhibition [5] | Structure (SMILES) | IC50 (4T1 [1]) | Activity (Sarcoma-180 [2]) | inhibition in vivo at 10 µmol/kg (Sarcoma-180 [3]) | Activity (4T1 [6]) | Activity (4T1 [7]) | Activity [8] | Activity (4T1 [9]) | Activity [10] | Activity [11] | Activity [12]
 |  | N=C(CCl)NCCC[C@H](NC(=O)c1cc([N+](=O)[O-])c2nonc2c1)C(=O)NCc1ccccc1B(O)O | > 100 µM | 0.89 g | 45.7% |  |  |  |  |  |  | 
2.86 µM | Active | CN(C)c1ccc2cc(C(=O)N[C@@H](CCCNC(=N)CCl)C(=O)NCc3ccccc3)ccc2c1 | 11.9 µM | 0.94 g | 42.7% | Active | Active | Toxic | Active | Toxic | Toxic | Toxic
 |  | N=C(CCl)NCCC[C@H](NC(=O)c1ccc(B(O)O)cc1)C(=O)NCc1ccccc1 | > 100 µM | 0.98 g | 40.3% |  |  |  |  |  |  | 
 |  | N=C(CCl)NCCC[C@H](NC(=O)c1cc([N+](=O)[O-])c2nonc2c1)C(=O)NCc1ccc(B(O)O)cc1 | > 100 µM | 0.87 g | 47.4% |  |  |  |  |  |  | 
 |  | N=C(CCl)NCCC[C@H](NC(=O)c1cc(B(O)O)ccc1F)C(=O)NCc1ccccc1 | > 100 µM | 1.14 g | 30.8% |  |  |  |  |  |  | 
 |  | N=C(CCl)NCCC[C@H](NC(=O)c1cc(F)cc(B(O)O)c1)C(=O)NCc1ccccc1 | > 100 µM | 1.01 g | 38.7% |  |  |  |  |  |  | 
 |  | N=C(CCl)NCCC[C@H](NC(=O)c1cccc(B(O)O)c1)C(=O)NCc1ccccc1 | > 100 µM | 1.04 g | 36.7% |  |  |  |  |  |  | 
